This passage reports Gastrointestinal absorption results from patent US20190328670A1, “Microparticles for Oral Delivery” (Intervet Inc., priority 2004, published 2019).

The series in a line: Oral bioavailability in rats compared with conventional formulations. It counts as in vivo. How it is done: Glyceryl tricaprylate and tricaprate mixture solutions containing these drugs are admixed in complex slurry according to Example 1 and recovered as free-flowing powders as in Example 2. […] Oral bioavailability is tested in rats and compared with those from other conventional formulations.
A soy oil solution containing 100 parts per million of triclosan is admixed in a complex slurry containing 100 parts per million of chlorhexidine according to Example 1. Microbeads are then produced and recovered as free-flowing powders as in Example 2. […] Oral bioavailability is tested in rats and compared with those from other conventional formulations.

As to `Oc1cc(Cl)ccc1Oc1ccc(Cl)cc1Cl` [triclosan], the Gastrointestinal absorption result (rats, oral, from the microbeads/microcapsules versus powders, granules, or oil solution) is listed as “more efficient”.
As for `[H]/N=C(\N/C(=N/[H])NCCCCCCNC(=N)NC(=N)Nc1ccc(Cl)cc1)Nc1ccc(Cl)cc1` [chlorhexidine], for the setting “rat, in vivo, po”, the Gastrointestinal absorption result is “more efficient”.
